Source: the supplement of paper PMC13207355

Experiments:
Settings in all cases: exposure time: 72 h
[1] = test system: FT3469 (normal neural stem cell line); assay: phenotypic distance (Euclidean, principal components) from DMSO controls (arbitrary units); higher = stronger morphological change
[2] = test system: E28 (patient-derived glioblastoma stem cells of classical subtype); assay: as above
[3] = test system: E57 (patient-derived glioblastoma stem cells of mesenchymal subtype); assay: as above
[4] = test system: E31 (patient-derived glioblastoma stem cells of proneural subtype); assay: as above
[5] = test system: E34 (patient-derived glioblastoma stem cells of proneural subtype); assay: as above
[6] = test system: E21 (patient-derived glioblastoma stem cells of mesenchymal subtype); assay: as above
[7] = test system: E13 (patient-derived glioblastoma stem cells of classical subtype); assay: as above
[8] = test system: FT3469; assay: surviving fraction (nuclei count normalised to DMSO); higher = more cells surviving (less toxic)
[9] = test system: E28; assay: as above
[10] = test system: E57; assay: as above
[11] = test system: E31; assay: as above
[12] = test system: E34; assay: as above
[13] = test system: E21; assay: as above
[14] = test system: E13; assay: as above
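For phenotypic distance (Euclidean, principal components) from DMSO controls in this document: cell Painting imaging in 384-well plates, CellProfiler features reduced to at least 20 principal components, Euclidean distance versus same-plate DMSO vehicle wells (0.1% v/v), median over six images per well.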
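For surviving fraction (nuclei count normalised to DMSO) in this document: nuclei counted by high-content imaging of Hoechst-stained cells in laminin-coated 384-well plates, relative to 0.1% DMSO vehicle wells, with staurosporine as cell-death control.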

SMILES: CNc1ccc2oc(C[C@H]3O[C@@]4(CC[C@H]3C)O[C@H]([C@H](C)C(=O)c3ccc[nH]3)[C@H](C)C[C@H]4C)nc2c1C(=O)O [Calcimycin]
- phenotypic distance ([1]; 4.1 nM): 1.09
- phenotypic distance ([1]; 12.3 nM): 0.726
- phenotypic distance ([1]; 37 nM): 1.32
- phenotypic distance ([1]; 111.1 nM): 1.82
- phenotypic distance ([1]; 333.3 nM): 3.73
- phenotypic distance ([1]; 1000 nM): 6.31
- phenotypic distance ([1]; 3000 nM): 5.79
- phenotypic distance ([2]; 4.1 nM): 0.698
- phenotypic distance ([2]; 12.3 nM): 0.777
- phenotypic distance ([2]; 37 nM): 0.856
- phenotypic distance ([2]; 111.1 nM): 1.27
- phenotypic distance ([2]; 333.3 nM): 2.95
- phenotypic distance ([2]; 1000 nM): 5.6
- phenotypic distance ([2]; 3000 nM): 6.55
- phenotypic distance ([3]; 4.1 nM): 1.32
- phenotypic distance ([3]; 12.3 nM): 0.365
- phenotypic distance ([3]; 37 nM): 1.3
- phenotypic distance ([3]; 111.1 nM): 3.84
- phenotypic distance ([3]; 333.3 nM): 7.84
- phenotypic distance ([3]; 1000 nM): 9.39
- phenotypic distance ([3]; 3000 nM): 9.11
- phenotypic distance ([4]; 4.1 nM): 0.62
- phenotypic distance ([4]; 12.3 nM): 0.642
- phenotypic distance ([4]; 37 nM): 0.72
- phenotypic distance ([4]; 111.1 nM): 2.33
- phenotypic distance ([4]; 333.3 nM): 7.91
- phenotypic distance ([4]; 1000 nM): 11
- phenotypic distance ([4]; 3000 nM): 10.4
- phenotypic distance ([5]; 4.1 nM): 1.43
- phenotypic distance ([5]; 12.3 nM): 1.06
- phenotypic distance ([5]; 37 nM): 1.29
- phenotypic distance ([5]; 111.1 nM): 1.9
- phenotypic distance ([5]; 333.3 nM): 5.09
- phenotypic distance ([5]; 1000 nM): 6.74
- phenotypic distance ([5]; 3000 nM): 8.56
- phenotypic distance ([6]; 4.1 nM): 0.571
- phenotypic distance ([6]; 12.3 nM): 0.699
- phenotypic distance ([6]; 37 nM): 0.538
- phenotypic distance ([6]; 111.1 nM): 1.96
- phenotypic distance ([6]; 333.3 nM): 7.08
- phenotypic distance ([6]; 1000 nM): 8.73
- phenotypic distance ([6]; 3000 nM): 12.7
- phenotypic distance ([7]; 4.1 nM): 1
- phenotypic distance ([7]; 12.3 nM): 0.71
- phenotypic distance ([7]; 37 nM): 1.46
- phenotypic distance ([7]; 111.1 nM): 3.31
- phenotypic distance ([7]; 333.3 nM): 6.79
- phenotypic distance ([7]; 1000 nM): 7.97
- phenotypic distance ([7]; 3000 nM): 8.33
- surviving fraction ([8]; 4.1 nM): 1.05
- surviving fraction ([8]; 12.3 nM): 0.987
- surviving fraction ([8]; 37 nM): 0.999
- surviving fraction ([8]; 111.1 nM): 0.849
- surviving fraction ([8]; 333.3 nM): 0.578
- surviving fraction ([8]; 1000 nM): 0.25
- surviving fraction ([8]; 3000 nM): 0.118
- surviving fraction ([9]; 4.1 nM): 1.07
- surviving fraction ([9]; 12.3 nM): 1.19
- surviving fraction ([9]; 37 nM): 0.999
- surviving fraction ([9]; 111.1 nM): 0.82
- surviving fraction ([9]; 333.3 nM): 0.391
- surviving fraction ([9]; 1000 nM): 0.0896
- surviving fraction ([9]; 3000 nM): 0.0448
- surviving fraction ([10]; 4.1 nM): 1.07
- surviving fraction ([10]; 12.3 nM): 0.989
- surviving fraction ([10]; 37 nM): 0.871
- surviving fraction ([10]; 111.1 nM): 0.561
- surviving fraction ([10]; 333.3 nM): 0.201
- surviving fraction ([10]; 1000 nM): 0.0743
- surviving fraction ([10]; 3000 nM): 0.0336
- surviving fraction ([11]; 4.1 nM): 0.918
- surviving fraction ([11]; 12.3 nM): 0.898
- surviving fraction ([11]; 37 nM): 1
- surviving fraction ([11]; 111.1 nM): 0.786
- surviving fraction ([11]; 333.3 nM): 0.259
- surviving fraction ([11]; 1000 nM): 0.00976
- surviving fraction ([11]; 3000 nM): 0.00976
- surviving fraction ([12]; 4.1 nM): 0.804
- surviving fraction ([12]; 12.3 nM): 0.991
- surviving fraction ([12]; 37 nM): 0.946
- surviving fraction ([12]; 111.1 nM): 0.787
- surviving fraction ([12]; 333.3 nM): 0.467
- surviving fraction ([12]; 1000 nM): 0.381
- surviving fraction ([12]; 3000 nM): 0.143
- surviving fraction ([13]; 4.1 nM): 0.98
- surviving fraction ([13]; 12.3 nM): 0.993
- surviving fraction ([13]; 37 nM): 0.951
- surviving fraction ([13]; 111.1 nM): 0.887
- surviving fraction ([13]; 333.3 nM): 0.438
- surviving fraction ([13]; 1000 nM): 0.0684
- surviving fraction ([13]; 3000 nM): 0.00892
- surviving fraction ([14]; 4.1 nM): 0.894
- surviving fraction ([14]; 12.3 nM): 0.814
- surviving fraction ([14]; 37 nM): 0.678
- surviving fraction ([14]; 111.1 nM): 0.576
- surviving fraction ([14]; 333.3 nM): 0.266
- surviving fraction ([14]; 1000 nM): 0.11
- surviving fraction ([14]; 3000 nM): 0.061
